# From US4210581A, “Organic compounds” (Sandoz Ltd., priority 1975, dated 1980)
# What was measured:
# Aspergillus Niger = test: Activity against Aspergillus Niger; format: cell-based
# Description: Cyclosporin C may be isolated by chromatography as a compound active against Aspergillus Niger and having greater polarity than Cyclosporins A and B (designated S7481/F-1 and S7481/F-2 in the above mentioned D.O.S.).
# [1] = system: paralysis induced by experimentally induced nerve tissue damages; test: Experimental allergic encephalomyelitis (EAE) test; format: in vivo; settings: rats, between 50 and 100 mg/kg/day
# [2] = system: hemolytic plaque-forming cells; test: Jerne test (local hemolysis in gel); format: in vivo; settings: mice, 50 to 200 mg/kg per os
# Description: (i) in the Jerne test the effect of the substance on local hemolysis in gel is observed.
# [3] = system: antibodies formed against sheep erythrocytes; test: Hemagglutination test (HAT); format: in vivo; settings: mice, 100 to 200 mg/kg per os
# Experimental: (ii) in the hemagglutination test (HAT) in mice a stimulation of the antibodies formed against sheep erythrocytes is obtained at a dose of from 100 to 200 mg/kg per os. animal body weight;
# [4] = system: Freund adjuvant arthritis swellings; test: Freund adjuvant arthritis latent period test; format: in vivo; settings: rats, p.o., about 1 to about 10 mg/kg
# [5] = Solubility at room temperature; format: physicochemical
# [6] = system: oxazolone skin hypersensitivity swelling; test: Oxazolone skin hypersensitivity reaction; format: in vivo; settings: mice, doses of 70 to 200 mg/kg
# [7] = system: skin grafts in H-2 histoincompatible mice; test: Skin transplantation (allograft) test; format: in vivo; settings: 100 to 200 mg/kg per os
Molecule,activity against Aspergillus Niger (Aspergillus Niger),incidence of paralysis [1],stimulation of hemolytic plaque-forming cells (immunoglobulin M and G2a antibodies) [2],stimulation of the antibodies formed against sheep erythrocytes [3],inhibition of swellings [4],"solubility in organic solvents ([5]; benzene, dichloromethane, chloroform, ethyl acetate, acetone, ethanol and methanol)",solubility in water ([5]; water),inhibition of swelling [6],prolongation in the period of survival of skin grafts [7]
"C/C=C/C[C@@H](C)[C@@H](O)[C@H]1C(=O)N[C@@H]([C@@H](C)O)C(=O)N(C)CC(=O)N(C)[C@@H](CC(C)C)C(=O)N[C@@H](C(C)C)C(=O)N(C)[C@@H](CC(C)C)C(=O)N[C@@H](C)C(=O)N[C@H](C)C(=O)N(C)[C@@H](CC(C)C)C(=O)N(C)[C@@H](CC(C)C)C(=O)N(C)[C@@H](C(C)C)C(=O)N1C [Cyclosporin C, cyclosporin C]",active,,,,,,,,
dihydrocyclosporin C,,reduced significantly,significant stimulation,stimulation,inhibition of swellings,easily soluble,difficulty soluble,significant and pronounced inhibition,significant prolongation
